According to PubChem BioAssay AID1963846 (Molecular Pharmacology Branch, DTP, NCI, 2024):

Test system: 454973-116-R2-J3-PDC complex spheroid viability
Experiment: Anticancer human tumor 454973-116-R2-J3-PDC patient-derived pancreatic carcinoma cell line growth inhibition [POLQ]
Conditions: for IC50: curve of first compound; for viability, T/C: stronger effect = lower value
Procedure, shortened: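 Three-cell-type spheroids modelling solid tumor plus stroma served as the readout system; POL inhibitors were tested individually and in combination, concentration ranges set by clinical Cmax where known.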

[1] = second compound 0.0316 µM, first compound 0.00316 µM
[2] = second compound 0.0316 µM, first compound 0.01 µM
[3] = second compound 0.0316 µM, first compound 0.0316 µM
[4] = second compound 0.0316 µM, first compound 0.1 µM
[5] = second compound 0.1 µM, first compound 0.00316 µM
[6] = second compound 0.1 µM, first compound 0.01 µM
[7] = second compound 0.1 µM, first compound 0.0316 µM
[8] = second compound 0.1 µM, first compound 0.1 µM
[9] = second compound 0.316 µM, first compound 0.00316 µM
[10] = second compound 0.316 µM, first compound 0.01 µM
[11] = second compound 0.316 µM, first compound 0.0316 µM
[12] = second compound 0.316 µM, first compound 0.1 µM
[13] = second compound 1 µM, first compound 0.00316 µM
[14] = second compound 1 µM, first compound 0.01 µM
[15] = second compound 1 µM, first compound 0.0316 µM
[16] = second compound 1 µM, first compound 0.1 µM
[17] = second compound 3.16 µM, first compound 0.00316 µM
[18] = second compound 3.16 µM, first compound 0.01 µM
[19] = second compound 3.16 µM, first compound 0.0316 µM
[20] = second compound 3.16 µM, first compound 0.1 µM
[21] = second compound 10 µM, first compound 0.00316 µM
[22] = second compound 10 µM, first compound 0.01 µM
[23] = second compound 10 µM, first compound 0.0316 µM
[24] = second compound 10 µM, first compound 0.1 µM
[25] = second compound 0.0316 µM, first compound 0.316 µM
[26] = second compound 0.0316 µM, first compound 1 µM
[27] = second compound 0.1 µM, first compound 0.316 µM
[28] = second compound 0.1 µM, first compound 1 µM
[29] = second compound 0.316 µM, first compound 0.316 µM
[30] = second compound 0.316 µM, first compound 1 µM
[31] = second compound 1 µM, first compound 0.316 µM
[32] = second compound 1 µM, first compound 1 µM
[33] = second compound 3.16 µM, first compound 0.316 µM
[34] = second compound 3.16 µM, first compound 1 µM
[35] = second compound 10 µM, first compound 0.316 µM
[36] = second compound 10 µM, first compound 1 µM
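Also: spheroids exposed to drugs for seven days before measurement.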
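For viability, T/C in this document: percent viability relative to DMSO vehicle control wells taken as 100%.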

SMILES: CC[C@@]1(O)C(=O)OCc2c1cc1n(c2=O)Cc2cc3c(CN(C)C)c(O)ccc3nc2-1 + Nc1ccc(C#CCN(C(=O)Cc2ncc(C(F)(F)F)cc2C(F)(F)F)c2ccc(F)cc2)nn1
- IC50 (second compound 0.0316 µM): 15.7 nM
- IC50 (second compound 0.1 µM): 15.8 nM
- IC50 (second compound 0.316 µM): 15 nM
- IC50 (second compound 1 µM): 15.6 nM
- IC50 (second compound 3.16 µM): 16.1 nM
- IC50 (second compound 10 µM): 17.2 nM
- viability, T/C (second compound 0.0316 µM, first compound 0.000316 µM): 105%
- viability, T/C (second compound 0.0316 µM, first compound 0.001 µM): 106%
- viability, T/C [1]: 98.9%
- viability, T/C [2]: 73.7%
- viability, T/C [3]: 13.2%
- viability, T/C [4]: 10.1%
- viability, T/C (second compound 0.1 µM, first compound 0.000316 µM): 107%
- viability, T/C (second compound 0.1 µM, first compound 0.001 µM): 104%
- viability, T/C [5]: 97.3%
- viability, T/C [6]: 73.2%
- viability, T/C [7]: 14.2%
- viability, T/C [8]: 10.4%
- viability, T/C (second compound 0.316 µM, first compound 0.000316 µM): 106%
- viability, T/C (second compound 0.316 µM, first compound 0.001 µM): 102%
- viability, T/C [9]: 107%
- viability, T/C [10]: 71.2%
- viability, T/C [11]: 10.7%
- viability, T/C [12]: 12.3%
- viability, T/C (second compound 1 µM, first compound 0.000316 µM): 111%
- viability, T/C (second compound 1 µM, first compound 0.001 µM): 110%
- viability, T/C [13]: 94.5%
- viability, T/C [14]: 73.2%
- viability, T/C [15]: 13.2%
- viability, T/C [16]: 12.3%
- viability, T/C (second compound 3.16 µM, first compound 0.000316 µM): 111%
- viability, T/C (second compound 3.16 µM, first compound 0.001 µM): 113%
- viability, T/C [17]: 98.7%
- viability, T/C [18]: 76.5%
- viability, T/C [19]: 11.9%
- viability, T/C [20]: 10.3%
- viability, T/C (second compound 10 µM, first compound 0.000316 µM): 122%
- viability, T/C (second compound 10 µM, first compound 0.001 µM): 110%
- viability, T/C [21]: 104%
- viability, T/C [22]: 86.1%
- viability, T/C [23]: 8.55%
- viability, T/C [24]: 9.22%

SMILES: CCc1c2c(nc3ccc(O)cc13)-c1cc3c(c(=O)n1C2)COC(=O)[C@]3(O)CC + Nc1ccc(C#CCN(C(=O)Cc2ncc(C(F)(F)F)cc2C(F)(F)F)c2ccc(F)cc2)nn1
- IC50 (second compound 0.0316 µM): < 3.16 nM
- IC50 (second compound 0.1 µM): < 3.16 nM
- IC50 (second compound 0.316 µM): < 3.16 nM
- IC50 (second compound 1 µM): < 3.16 nM
- IC50 (second compound 3.16 µM): < 3.16 nM
- IC50 (second compound 10 µM): < 3.16 nM
- viability, T/C [1]: 25.3%
- viability, T/C [2]: 11.3%
- viability, T/C [3]: 6.56%
- viability, T/C [4]: 4.56%
- viability, T/C [25]: 1.97%
- viability, T/C [26]: 1.11%
- viability, T/C [5]: 19%
- viability, T/C [6]: 10.4%
- viability, T/C [7]: 6.53%
- viability, T/C [8]: 3.88%
- viability, T/C [27]: 2.75%
- viability, T/C [28]: 1%
- viability, T/C [9]: 19.8%
- viability, T/C [10]: 11.3%
- viability, T/C [11]: 8.55%
- viability, T/C [12]: 4.38%
- viability, T/C [29]: 2.3%
- viability, T/C [30]: 0.79%
- viability, T/C [13]: 21.4%
- viability, T/C [14]: 8.67%
- viability, T/C [15]: 6.81%
- viability, T/C [16]: 3.42%
- viability, T/C [31]: 1.98%
- viability, T/C [32]: 0.59%
- viability, T/C [17]: 18.6%
- viability, T/C [18]: 9.44%
- viability, T/C [19]: 7.09%
- viability, T/C [20]: 4.06%
- viability, T/C [33]: 2.05%
- viability, T/C [34]: 0.6%
- viability, T/C [21]: 19%
- viability, T/C [22]: 10.2%
- viability, T/C [23]: 5.83%
- viability, T/C [24]: 2.67%
- viability, T/C [35]: 1.43%
- viability, T/C [36]: 0.54%

SMILES: COc1cc(C2c3cc4c(cc3C(OC3OC5COC(C)OC5C(O)C3O)C3COC(=O)C23)OCO4)cc(OC)c1O (stereo unspecified) + Nc1ccc(C#CCN(C(=O)Cc2ncc(C(F)(F)F)cc2C(F)(F)F)c2ccc(F)cc2)nn1
- IC50 (second compound 0.0316 µM): 934 nM
- IC50 (second compound 0.1 µM): 923 nM
- IC50 (second compound 0.316 µM): 817 nM
- IC50 (second compound 1 µM): 785 nM
- IC50 (second compound 3.16 µM): 775 nM
- IC50 (second compound 10 µM): 771 nM
- viability, T/C [3]: 98.2%
- viability, T/C [4]: 94.3%
- viability, T/C [25]: 78.4%
- viability, T/C [26]: 50.9%
- viability, T/C (second compound 0.0316 µM, first compound 3.16 µM): 14.2%
- viability, T/C (second compound 0.0316 µM, first compound 10 µM): 8.22%
- viability, T/C [7]: 107%
- viability, T/C [8]: 102%
- viability, T/C [27]: 84.1%
- viability, T/C [28]: 49.8%
- viability, T/C (second compound 0.1 µM, first compound 3.16 µM): 12.3%
- viability, T/C (second compound 0.1 µM, first compound 10 µM): 7.75%
- viability, T/C [11]: 98.5%
- viability, T/C [12]: 106%
- viability, T/C [29]: 82.7%
- viability, T/C [30]: 42.6%
- viability, T/C (second compound 0.316 µM, first compound 3.16 µM): 15.1%
- viability, T/C (second compound 0.316 µM, first compound 10 µM): 5.73%
- viability, T/C [15]: 112%
- viability, T/C [16]: 94.6%
- viability, T/C [31]: 79.1%
- viability, T/C [32]: 44.3%
- viability, T/C (second compound 1 µM, first compound 3.16 µM): 12.8%
- viability, T/C (second compound 1 µM, first compound 10 µM): 7.26%
- viability, T/C [19]: 107%
- viability, T/C [20]: 109%
- viability, T/C [33]: 80.3%
- viability, T/C [34]: 42%
- viability, T/C (second compound 3.16 µM, first compound 3.16 µM): 12.3%
- viability, T/C (second compound 3.16 µM, first compound 10 µM): 5.16%
- viability, T/C [23]: 115%
- viability, T/C [24]: 104%
- viability, T/C [35]: 79.3%
- viability, T/C [36]: 43.5%
- viability, T/C (second compound 10 µM, first compound 3.16 µM): 10.6%
- viability, T/C (second compound 10 µM, first compound 10 µM): 5.67%
